Measured values: patent US20250302846A1, “ANTIBIOTIC COMPOSITION AND METHODS OF USE THEREOF” (THE REGENTS OF THE UNIVERSITY OF COLORADO A BODY CORPORATE, priority 2022, published 2025)

Assays:
Type in all cases: cell-based
S. Typhimurium [1] = experiment: Propidium iodide membrane barrier assay
Experimental: (§1) FIG. 3A-F. D66 rapidly perturbs the bacterial cytoplasmic membrane with minor disruption of barrier function. Mid-log phase S. Typhimurium cells grown in LB with 0.5 μg/mL PMB were used for all experiments. A) Cell membrane potential was monitored with the fluorescent dye DiSC3 (5). Cells were treated at time 0 with DMSO, JD1 [70 μM], or D66. Data were normalized to DMSO at time 0 and corrected for the quenching effect of D66 (FIG. 6A, B) B) Cell membrane permeability was monitored by PI fluorescence. Cells were treated at time 0 with DMSO, SDS [0.005%] or D66. Samples were processed at the time points shown. A one-way ANOVA with a Dunnet's multiple comparison test, * P<0.005. C-F) Growth curves and kill-curves of cells treated at time 0 with either DMSO or D66. Culture aliquots were monitored for OD600 (C, E) or plated for enumeration of CFU (D, F). Data are presented as fold change. Mean and SEM of three biological replicates with technical triplicates are shown in all panels.
Propidium iodide membrane barrier assays: Compound, DMSO, or SDS was added to mid-log phase cells to the desired concentration, and cultures were sampled at 0, 10, 15, 20, 30 and 45 minutes. Five minutes before harvesting, PI [10 μg/mL] (Life Technologies) was added. Cells were pelleted, washed twice, resuspended in PBS, and monitored (ex535/em617 nm) using a BioTek Synergy H1 plate reader.

S. Typhimurium [2] = experiment: Growth curves and kill curves; details: outer-membrane perturbing conditions, D66 at 2x MIC, LB or MHB, 18 hours
Experimental: as §1
Growth curves and kill curves: Mid-log phase cultures were sampled at time 0 and then compound or vehicle control (DMSO) was added. Cultures were incubated at 37° C. with agitation. At the time intervals indicated, aliquots were monitored for OD600 and plated for CFU enumeration. Data for OD600 and CFU/mL were normalized to time 0.

S. aureus (FDA209) = experiment: Membrane voltage with DiSC3(5) in Gram-positive bacteria; details: mid-log S. aureus FDA209 in LB
Experimental: A) D66 quenches the fluorescent dye DiSC3 (5) in a dose-dependent manner. Data were normalized to DMSO at time 0. Relative fluorescent units (RFU). Mean and SEM of three biological replicates performed with technical triplicates. B, C) Mid-log phase S. aureus (FDA209) in LB were treated at time 0 with DMSO, gramicidin [2 μg/mL], or D66 (1x MIC95=130 μM). B) Fold change in RFU. Data are normalized to DMSO at time 0. C) Data normalized to account for the quenching effect of D66 on DiSC3 (5) observed in A. Mean and SEM of three biological replicates performed with technical triplicates. D) Bacillus subtilis expressing mNeonGreen-FtsZ at stationary phase in LB were placed on agar pads containing D66 at the indicated concentration (1x MIC95=89 μM). Confocal microscope images were taken after 15 minutes to ascertain whether D66 disrupted the septal localization of FtsZ.

[3] = test system: staphylococcal persister cells; experiment: Staphylococcal persister cell viability in broth; details: overnight cultures in broth, D66 at MIC95
Experimental: A-D) Overnight cultures of the indicated strains were treated at time 0 with DMSO, ciprofloxacin [4 μg/mL], vancomycin [10 μg/mL], or the corresponding MIC95 concentration of D66 (1x MIC95=130 μM, 49 μg/mL). Cultures were plated for enumeration of CFU at time points indicated. Mean and SEM of three biological replicates. E) RAW 264.7 macrophage-like cells and HeLa cells were infected with S. aureus USA300, at MOIs of 0.5 and 2.5, respectively. Cells were treated two hours after infection with DMSO (gray circle on Y axis), or dilutions of D66 from 40 μM. After 8 hours of infection, cells were lysed and plated for enumeration of CFU. Mean and SEM of biological duplicates performed with technical triplicates each with six dilutions of D66. The IC50 value that was calculatable is indicated.

[4] = test system: 5-day-old staphylococcal biofilms; experiment: 5-day-old staphylococcal biofilms; details: biofilms established 5 days in TSB, treated 18 hours, crystal violet
Experimental: (A-D). For the indicated strain, biofilms established in TSB for 5-days were treated for 18 hours with DMSO, rifampin (1x MIC95=0.05 μg/mL), vancomycin (1x MIC95=1 μg/mL), or D66 (Table 1). The remaining biofilm extracellular matrix was stained with crystal violet and the A595 was measured. Mean and SEM of three biological replicates performed with technical triplicates are shown. Asterisks indicate P≤0.05 as determined by one-way ANOVA compared to DMSO.

O=C(Nc1cc(Cl)cc(Cl)c1)N1CCCN(Cc2ccccc2)CC1 [D66]
time elapsed prior to an increase in PI fluorescence (S. Typhimurium [1]; LB with PMB [0.5 μg/mL], D66 at 1x MIC95): 45 min
time of treatment after which PI signal increased (S. Typhimurium [1]; LB with PMB [0.5 μg/mL], D66 at 2x MIC95, SDS [0.005%] positive control): 10 min
PI signal increase (S. Typhimurium [1]; at 1x MIC, within 30 minutes): two-fold
absorbance and CFU of bacteria (cell lysis) (S. Typhimurium [2]): did not reduce the absorbance nor the CFU of bacteria
voltage across the bacterial cytoplasmic membrane (S. aureus (FDA209)): rapidly disrupts voltage across the bacterial cytoplasmic membrane
number of viable staphylococcal persister cells [3]: did not reduce the number of viable staphylococcal persister cells in broth
reduction of 5-day-old biofilms [4]: minimally effective
